1 compound from patent US7202280B2, “Methods for the treatment and prevention of pancreatitis and for induction of liver regeneration” (priority 2002, dated 2007) can be followed below.

In the assay the test system is rats with arginine-induced pancreatitis. In words: Arginine-induced pancreatitis. It counts as in vivo, rat. How it is done:
FIG. 6 Plasma α-amylase activity in rats with arginine-induced pancreatitis after methylspermidine. The animals received […]-500 mg/kg) 24 h before sacrifice with or without methylspermidine (50 mg/kg) either as a single dose 4 h before arginine or as two doses 20 h and 4 h before arginine. Three to five animals in each group. Arg, Arginine. Me-Spd, methylspermidine. Administration of large quantities of arginine is known to cause acute, necrotizing pancreatitis in rats.

As for `CC(N)CCNCCCCN` (stereo not drawn) [α-methylspermidine, 1-methylspermidine], the plasma amylase result (arginine 250–500 mg/kg, single dose 50 mg/kg) is “significantly reduced the pancreatitis-associated increase in plasma amylase”. Further, for the setting “arginine 250–500 mg/kg, two repeated doses”, the plasma amylase levels entry was “fully normalized”. Moreover, where the note is “arginine-induced pancreatitis”, the “histopathological changes in the pancreas” value is recorded as “prevented the histopathological changes”.
